Results on two compounds are retold here after ChEMBL document CHEMBL1138883, “Synthesis and biological evaluation of new asymmetrical bisintercalators as potential antitumor drugs” (2006).

Calls of active or inactive are those of the source. The calls are words filed in the database; no cut-off is given here.

Test [1] in a line: Ratio of K(app) for [A-T] to [G-C].
The test system of test [2] is PC-3. Briefly: Cytotoxicity against PC3 cells by SRB assay after 48 hrs. It counts as functional. To be noted: Homo sapiens, PC-3, 48 h. On the technique in general: The SRB assay estimates cell density from bound dye.
The test system of test [3] is PC-3. Briefly: Reduction in PC3 cell viability after 48 hrs by FDA flow cytometer assay. Type of test: functional, cell-based. To be noted: Homo sapiens. For orientation: A flow cytometer gives signals particle by particle.
The test system of test [4] is PC-3. Briefly: Induction of apoptosis in PC3 cells by DNA fragmentation assay. Type of test: functional, cell-based. The note with it: Homo sapiens.
Test [5] relates to PC-3. As to the kind of experiment: Induction of apoptosis in PC3 measured as percentage of early apoptotic cells by biparametric PI/Annexin V assay at 5.1 uM after 8 hrs. Type of test: functional, Homo sapiens.
Test [6] deals with PC-3. Briefly: Induction of apoptosis in PC3 measured as percentage of early apoptotic cells by biparametric PI/Annexin V assay at 5.1 uM after 24 hrs. Type of test: functional, Homo sapiens.
In test [7] the test system is PC-3. As to the kind of experiment: Induction of apoptosis in PC3 measured as percentage of early apoptotic cells by biparametric PI/Annexin V assay at 5.1 uM after 48 hrs. Type of test: functional, Homo sapiens.
For test [8], the system named is PC-3. As to the kind of experiment: Induction of apoptosis in PC3 measured as percentage of late apoptotic cells by biparametric PI/Annexin V assay at 5.1 uM after 4 hrs. Type of test: functional, Homo sapiens.
Test [9] deals with PC-3. Briefly: Induction of apoptosis in PC3 measured as percentage of late apoptotic cells by biparametric PI/Annexin V assay at 5.1 uM after 8 hrs. Type of test: functional, Homo sapiens.
In test [10] the test system is PC-3. As to the kind of experiment: Induction of apoptosis in PC3 measured as percentage of late apoptotic cells by biparametric PI/Annexin V assay at 5.1 uM after 24 hrs. It counts as functional, Homo sapiens.
Test [11] concerns PC-3. Briefly: Induction of apoptosis in PC3 measured as percentage of late apoptotic cells by biparametric PI/Annexin V assay at 5.1 uM after 48 hrs. Type of test: functional, Homo sapiens.
For test [12], the system named is PC-3. Briefly: Induction of apoptosis in PC3 cells measured as percentage of living cells by biparametric PI/Annexin V assay at 5.1 uM after 4 hrs. Type of test: functional, Homo sapiens.
For test [13], the system named is PC-3. As to the kind of experiment: Induction of apoptosis in PC3 cells measured as percentage of living cells by biparametric PI/Annexin V assay at 5.1 uM after 8 hrs. It counts as functional, Homo sapiens.
The test system of test [14] is PC-3. Briefly: Induction of apoptosis in PC3 cells measured as percentage of living cells by biparametric PI/Annexin V assay at 5.1 uM after 24 hrs. Type of test: functional, Homo sapiens.
Test [15] concerns PC-3. Briefly: Induction of apoptosis in PC3 cells measured as percentage of living cells by biparametric PI/Annexin V assay at 5.1 uM after 48 hrs. It counts as functional, Homo sapiens.
The subject of test [16] is PC-3. Briefly: Induction of apoptosis in PC3 measured as percentage of necrotic cells by biparametric PI/Annexin V assay at 5.1 uM after 4 hrs. Type of test: functional, Homo sapiens.
In test [17] the test system is PC-3. Briefly: Induction of apoptosis in PC3 measured as percentage of necrotic cells by biparametric PI/Annexin V assay at 5.1 uM after 8 hrs. Type of test: functional, Homo sapiens.
Test [18] relates to PC-3. Briefly: Induction of apoptosis in PC3 measured as percentage of necrotic cells by biparametric PI/Annexin V assay at 5.1 uM after 24 hrs. Type of test: functional, Homo sapiens.
In test [19] the test system is PC-3. Briefly: Induction of apoptosis in PC3 measured as percentage of necrotic cells by biparametric PI/Annexin V assay at 5.1 uM after 48 hrs. It counts as functional, Homo sapiens.
In test [20] the test system is PC-3. Briefly: Induction of apoptosis in PC3 measured as percentage of early apoptotic cells by biparametric PI/Annexin V assay at 5.1 uM after 4 hrs. Type of test: functional, Homo sapiens.
Test [21] concerns PC-3. As to the kind of experiment: Induction of necrosis in PC3 cells by DNA fragmentation assay. To be noted: Homo sapiens. Type of test: functional, cell-based.
The subject of test [22] is PC-3. As to the kind of experiment: Induction of apoptosis in PC3 cells measured as percentage of living cells by biparametric PI/Annexin V assay at 3.6 uM after 4 hrs. Type of test: functional, Homo sapiens.
The subject of test [23] is PC-3. Briefly: Induction of apoptosis in PC3 cells measured as percentage of living cells by biparametric PI/Annexin V assay at 3.6 uM after 8 hrs. Type of test: functional, Homo sapiens.
Test [24] has as its system PC-3. Briefly: Induction of apoptosis in PC3 cells measured as percentage of living cells by biparametric PI/Annexin V assay at 3.6 uM after 24 hrs. It counts as functional, Homo sapiens.
The subject of test [25] is PC-3. As to the kind of experiment: Induction of apoptosis in PC3 cells measured as percentage of living cells by biparametric PI/Annexin V assay at 3.6 uM after 48 hrs. It counts as functional, Homo sapiens.
The subject of test [26] is PC-3. As to the kind of experiment: Induction of apoptosis in PC3 measured as percentage of necrotic cells by biparametric PI/Annexin V assay at 3.6 uM after 4 hrs. It counts as functional, Homo sapiens.
The subject of test [27] is PC-3. Briefly: Induction of apoptosis in PC3 measured as percentage of necrotic cells by biparametric PI/Annexin V assay at 3.6 uM after 8 hrs. It counts as functional, Homo sapiens.
Test [28] has as its system PC-3. Briefly: Induction of apoptosis in PC3 measured as percentage of necrotic cells by biparametric PI/Annexin V assay at 3.6 uM after 24 hrs. Type of test: functional, Homo sapiens.
Test [29] deals with PC-3. As to the kind of experiment: Induction of apoptosis in PC3 measured as percentage of necrotic cells by biparametric PI/Annexin V assay at 3.6 uM after 48 hrs. It counts as functional, Homo sapiens.
The test system of test [30] is PC-3. As to the kind of experiment: Induction of apoptosis in PC3 measured as percentage of early apoptotic cells by biparametric PI/Annexin V assay at 3.6 uM after 4 hrs. Type of test: functional, Homo sapiens.
The test system of test [31] is PC-3. Briefly: Induction of apoptosis in PC3 measured as percentage of early apoptotic cells by biparametric PI/Annexin V assay at 3.6 uM after 8 hrs. It counts as functional, Homo sapiens.
Test [32] has as its system PC-3. As to the kind of experiment: Induction of apoptosis in PC3 measured as percentage of early apoptotic cells by biparametric PI/Annexin V assay at 3.6 uM after 24 hrs. Type of test: functional, Homo sapiens.
The test system of test [33] is PC-3. As to the kind of experiment: Induction of apoptosis in PC3 measured as percentage of early apoptotic cells by biparametric PI/Annexin V assay at 3.6 uM after 48 hrs. It counts as functional, Homo sapiens.
Test [34] relates to PC-3. As to the kind of experiment: Induction of apoptosis in PC3 measured as percentage of late apoptotic cells by biparametric PI/Annexin V assay at 3.6 uM after 4 hrs. It counts as functional, Homo sapiens.
The test system of test [35] is PC-3. As to the kind of experiment: Induction of apoptosis in PC3 measured as percentage of late apoptotic cells by biparametric PI/Annexin V assay at 3.6 uM after 8 hrs. Type of test: functional, Homo sapiens.
Test [36] deals with PC-3. As to the kind of experiment: Induction of apoptosis in PC3 measured as percentage of late apoptotic cells by biparametric PI/Annexin V assay at 3.6 uM after 24 hrs. It counts as functional, Homo sapiens.
In test [37] the test system is PC-3. Briefly: Induction of apoptosis in PC3 measured as percentage of late apoptotic cells by biparametric PI/Annexin V assay at 3.6 uM after 48 hrs. Type of test: functional, Homo sapiens.

Usually GI50 stands for the concentration that inhibits growth by half. A higher GI50 goes with less potent growth inhibition. A word on the TGI: it is the concentration giving total growth inhibition.

Regarding `Cc1ccc2c(c1)c(=O)c1c(NCCCN(C)CCCN3C(=O)c4cccc5cccc(c45)C3=O)ccc3nnn2c31.Cl`, in [1], the Selectivity ratio was found to be 1.7. The GI50 with PC-3 [2] came out at 0.017 µM. Besides, the LC50 (concentration for 50% net cell kill) with PC-3 [2] stood at 5.1 µM. In the test on PC-3 [2], this compound had a TGI of 1.6 µM. The Activity result in the test with PC-3 [3] is “Time-dependent effect”; with PC-3 [5], 1.3%; in the test on PC-3 [6], 39%; with PC-3 [7] it was 57%; in the test on PC-3 [8], 1.1%; in the test on PC-3 [9], 1.9%. Further, the Activity in the test on PC-3 [10] turned out to be 16.1%; in the test with PC-3 [11], 15.7%; in the test on PC-3 [12] it was 69.4%; in the test with PC-3 [13], 54.8%; with PC-3 [14], 11.9%; in the test on PC-3 [15], 1%. The Activity was found to be 28.6% in the test on PC-3 [16]; 42% in the test with PC-3 [17]; 33% with PC-3 [18]; 27.3% with PC-3 [19]; 0.9% in the test on PC-3 [20]. The result in the test with PC-3 [4] was Active.
Turning to `COc1ccc2nc3c(C(=O)NCCN(C)C)ccc(NCCCN(C)CCCN4C(=O)c5cccc6cccc(c56)C4=O)c3c(O)c2c1.Cl`, in test [1], the Selectivity ratio is 30. In the test on PC-3 [2], the GI50 came out at 0.00016 µM. In the test with PC-3 [2], this compound displayed an LC50 (concentration for 50% net cell kill) of 3.6 µM. The same compound displayed a TGI with PC-3 [2] of 0.014 µM. Also, the Activity entry is “Time-dependent effect” with PC-3 [3]; 81.1% with PC-3 [22]; 62.7% in the test on PC-3 [23]; 35.5% in the test with PC-3 [24]; 2.3% in the test on PC-3 [25]; 16.4% in the test with PC-3 [26]. Also, the Activity in the test on PC-3 [27] came to 32.9%; in the test with PC-3 [28], 22.3%; in the test on PC-3 [29], 24.4%; in the test on PC-3 [30], 1.3%; with PC-3 [31], 1.5%; in the test on PC-3 [32], 25.9%. Also, the Activity in the test on PC-3 [33] came out at 59%; with PC-3 [34] it was 1.2%; with PC-3 [35], 2.9%; in the test with PC-3 [36], 16.3%; in the test on PC-3 [37], 14.3%. Also, the outcome with PC-3 [21] and in the test with PC-3 [4] was Active.
